Reference: patent US7666639B2, “Plant deoxyribonucleoside kinase enzymes and their use” (priority 2002, dated 2010)

Tested on: N-terminally deleted tomato dNK enzyme (TOM-ΔNdCK/dGK)
Assay: Deoxyribonucleoside kinase activity in extract of KY895 transformed with pGEX-2T-TOM-ΔNdCK/dGK
Format: biochemical, Lycopersicum esculentum
Conditions: pGEX-2T-TOM-ΔNdCK/dGK
Procedure: The E. coli strain KY895 (F^−, tdk-1, ilv) [Knecht W, Munch-Petersen B and Piskur J: Identification of residues involved in the specificity and regulation of the highly efficient multisubstrate deoxyribonucleoside kinase from Drosophila melanogaster; J. Mol. Biol. 2000 301 827-837] was transformed by various expression plasmids using standard techniques. Transformed KY895 strains were grown to an OD600 nm of 0.5-0.6 in LB/Ampicillin (100 μg/ml) medium at 37° C., and protein expression was induced by addition of 100 μM IPTG. The cells were further grown for 4 hours at 25° C. and subsequently harvested by centrifugation.
Pellets were stored at −80° C. until activity testing. Pellets were submitted to brief sonification in extraction buffer (50 mM Tris/HCl pH 7.5, 1 mM DTT, 10% (v/v) glycerol, 1% (v/v) Triton X-100, protease inhibitor cocktail (Complete™ from Roche Diagnostics).
Deoxyribonucleoside kinase activities were determined in the KY895 extracts by initial velocity measurements based on four time samples by the DE-81 filter paper assay using tritium-labelled nucleoside substrates. 4 to 20 μg extracts were used in the assays. The assay was done as described by Munch-Petersen et al. [Munch-Petersen, B., Knecht, W, Lenz, C., Sondergaard, L. & Piskur, J: Functional expression of a multisubstrate deoxyribonucleoside kinase from Drosophila melanogaster and its C-terminal deletion mutants; J. Biol. Chem. 2000 275 6673-6679].
The protein concentration was determined according to Bradford with BSA as standard protein [Bradford M M: A rapid and sensitive method for the quantitation of microgram quantities of protein utilizing the principle of protein-dye binding; Anal. Biochem. 1976 72 248-254]. SDS-PAGE was done according to the procedure of Laemmli [Laemmli U K: Cleavage of structural proteins during the assembly of the head of bacteriophage T4; Nature 1970 227 680-685], and proteins were visualized by Coomassie staining to verify recombinant protein expression.
The four natural deoxyribonucleosides were tested at a fixed concentration of 100 μM. The highest specific activity in each extract was set to 100%.

Structure (SMILES) | ability to phosphorylate the deoxyribonucleoside (in words)
Nc1ncnc2c1ncn2[C@H]1C[C@H](O)[C@@H](CO)O1 [dAdo, deoxyadenosine] | able to phosphorylate
Nc1ccn([C@H]2C[C@H](O)[C@@H](CO)O2)c(=O)n1 [dCyd, deoxycytidine] | able to phosphorylate
